Where a SMILES comes first, the peptide text is derived from it. Bridges are numbered along the chain shown (N, C = ends).
Test system: Rabbit Renal Artery
Test: Vasorelaxant relative potency, rabbit renal artery
Assay type: cell-based

With `CC[C@H](C)[C@@H]1NC(=O)[C@H](CCCNC(=N)N)NC(=O)[C@H](CC(=O)O)NC(=O)[C@H]([C@@H](C)CC)NC(=O)[C@H](CCCNC(=N)N)NC(=O)CNC(=O)CNC(=O)[C@H](Cc2ccccc2)NC(=O)[C@@H](N)CSSC[C@@H](C(=O)N[C@@H](CC(N)=O)C(=O)N[C@@H](CO)C(=O)N2CCC[C@H]2C(=O)N[C@@H](CCCNC(=N)N)C(N)=O)NC(=O)CNC(=O)[C@H](CC(C)C)NC(=O)CNC(=O)[C@H](CO)NC(=O)[C@H](CCC(N)=O)NC(=O)[C@H](C)NC(=O)CNC1=O` [Structure 23, PROLINE-26 ANF (7-27) amide] (H-CFGGRIDRIGAQSGLGCNSPR-NH2; disulfide 1-17) the “Vasorelaxant Relative Potency Rabbit Renal Artery” value (Table 1, (3-28) analogs, relative to sequence I = 1) was 3.3.

For `CC[C@H](C)[C@@H]1NC(=O)[C@H](CCCNC(=N)N)NC(=O)[C@H](CC(=O)O)NC(=O)[C@H]([C@@H](C)CC)NC(=O)[C@H](CCCNC(=N)N)NC(=O)CNC(=O)CNC(=O)[C@H](Cc2ccccc2)NC(=O)[C@@H](N)CSSC[C@@H](C(=O)N[C@@H](CC(N)=O)C(=O)N[C@@H](CO)C(=O)N2CCC[C@H]2C(=O)N[C@@H](CCCNC(=N)N)C(N)=O)NC(=O)CNC(=O)[C@H](CC(C)C)NC(=O)CNC(=O)[C@H](CO)NC(=O)[C@H](CCC(N)=O)NC(=O)[C@H](C)NC(=O)CNC1=O` [Structure 23] (H-CFGGRIDRIGAQSGLGCNSPR-NH2; disulfide 1-17), the “Vasorelaxant Relative Potency Rabbit Renal Artery” value (Table 2, (7-27)-NH2 analogs, relative to I (7-27)-NH2 = 1) was 3.86.

— patent US5204328A, “Peptides having atrial natriuretic factor activity” (Merck & Co., Inc., priority 1991, dated 1993)
